Data as given in patent publication US20230040182A1, “ARYL HETEROBICYCLIC COMPOUNDS AS Kv1.3 POTASSIUM SHAKER CHANNEL BLOCKERS” (priority 2019, published 2023).

Assays:
[1] = target: T1, hERG channel (Homo sapiens, UniProt Q12809); assay: hERG electrophysiology, automated whole-cell patch clamp (Patchliner); type: cell-based; details: CHO-K1 cells stably expressing hERG; whole-cell current, Hill fit
T1 construct: expressed in transfected cells
Protocol: Example 10. Evaluation of hERG Activities
This assay is used to evaluate the disclosed compounds' inhibition activities against the hERG channel.
CHO-K1 cells stably expressing hERG were grown in Ham's F-12 Medium with Glutamine containing 10% heat-inactivated FBS, 1% Penicillin/Streptomycin, Hygromycin (100 μg/ml) and G418 (100 μg/ml). Cells were grown in culture flasks at 37° C. in a 5% CO2-humidified incubator.
(§1) The cells were bathed in an extracellular solution containing 140 mM NaCl, 4 mM KCl, 2 mM CaCl2), 1 mM MgCl2, 5 mM Glucose, 10 mM HEPES; pH adjusted to 7.4 with NaOH; 295-305 mOsm. The internal solution contained 50 mM KCl, 10 mM NaCl, 60 mM KF, 20 mM EGTA, 10 mM HEPES; pH adjusted to 7.2 with KOH; 285 mOsm. All compounds were dissolved in DMSO at 30 mM. Compound stock solutions were freshly diluted with external solution to concentrations of 30 nM, 100 nM, 300 nM, 1 μM, 3 μM, 10 μM, 30 μM and 100 μM. The highest content of DMSO (0.3%) was present in 100 μM.
The voltage protocol (see Table B) was designed to simulate voltage changes during a cardiac action potential with a 300 ms depolarization to +20 mV (analogous to the plateau phase of the cardiac action potential), a repolarization for 300 ms to −50 mV (inducing a tail current) and a final step to the holding potential of −80 mV. The pulse frequency was 0.3 Hz. Control (compound-free) and compound pulse trains for each compound concentration applied contained 70 pulses.
(§2) Whole-cell current recordings and compound application were enabled by means of an automated patch clamp platform Patchliner (Nanion). EPC 10 patch clamp amplifier (HEKA) along with Patchmaster software (HEKA Elektronik Dr. Schulze GmbH) was used for data acquisition. Data were sampled at 10 kHz without filtering. Increasing compound concentrations were applied consecutively to the same cell without washouts in between.
(§3) AUC and PEAK values were obtained with Patchmaster (HEKA Elektronik Dr. Schulze GmbH). To determine IC50 the last single pulse in the pulse train corresponding to a given compound concentration was used. Obtained AUC and PEAK values in the presence of compound were normalized to control values in the absence of compound. Using Origin (OridinLab), IC50 was derived from data fit to Hill equation: Icompound/Icontrol=(100−A)/(1+([compound]/IC50)nH)+A, where IC50 is the concentration at which current inhibition is half-maximal, [compound] is the applied compound concentration, A is the fraction of current that is not blocked and nH is the Hill coefficient.

[2] = target: T2, Kv1.3 potassium channel (Homo sapiens, UniProt P22001); assay: Kv1.3 potassium channel blocker activity, automated whole-cell patch clamp (Patchliner); type: cell-based; details: CHO-K1 cells stably expressing Kv1.3; whole-cell current, Hill fit
T2 construct: expressed in transfected cells
T2 sequence (P22001 whole entry): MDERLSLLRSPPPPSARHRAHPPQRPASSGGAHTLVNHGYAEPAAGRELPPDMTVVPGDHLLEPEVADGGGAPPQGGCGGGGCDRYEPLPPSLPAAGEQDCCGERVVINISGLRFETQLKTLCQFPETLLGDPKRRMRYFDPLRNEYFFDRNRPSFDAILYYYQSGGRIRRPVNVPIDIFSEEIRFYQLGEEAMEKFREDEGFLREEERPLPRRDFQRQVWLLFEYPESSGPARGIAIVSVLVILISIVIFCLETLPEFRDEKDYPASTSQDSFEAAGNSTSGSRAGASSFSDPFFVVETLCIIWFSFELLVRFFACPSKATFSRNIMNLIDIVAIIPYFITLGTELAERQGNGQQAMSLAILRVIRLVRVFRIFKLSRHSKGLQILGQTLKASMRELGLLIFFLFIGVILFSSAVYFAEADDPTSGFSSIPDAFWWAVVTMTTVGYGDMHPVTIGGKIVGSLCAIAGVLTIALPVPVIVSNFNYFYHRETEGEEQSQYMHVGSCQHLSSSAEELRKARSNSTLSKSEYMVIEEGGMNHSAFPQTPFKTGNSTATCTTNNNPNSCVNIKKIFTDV
Protocol: Example 9. Evaluation of Kv1.3 Potassium Channel Blocker Activities
This assay is used to evaluate the disclosed compounds' activities as Kv1.3 potassium channel blockers.
CHO-K1 cells stably expressing Kv1.3 were grown in DMEM containing 10% heat-inactivated FBS, 1 mM Sodium Pyruvate, 2 mM L-Glutamine and G418 (500 μg/ml). Cells were grown in culture flasks at 37° C. in a […] incubator.
as §1, with “CaCl2,” for “CaCl2),”
The currents were evoked by applying 100 ms depolarizing pulses from −90 mV (holding potential) to +40 mV were applied with 0.1 Hz frequency. Control (compound-free) and compound pulse trains for each compound concentration applied contained 20 pulses. 10-second breaks were used between pulse trains (see Table A below).
as §2, with “(Nanion Technologies GmbH).” for “(Nanion).”, “(HEKA Elektronik Dr. Schulze GmbH)” for “(HEKA)”, “filtering. Passive leak currents were subtracted online using a P/4 procedure (HEKA Elektronik Dr. Schulze GmbH).” for “filtering.”, “between. Total compound incubation time before the next pulse train was not longer than 10 seconds. Peak current inhibition was observed during compound equilibration.” for “between.”
as §3, with “AUC and peak values were” for “AUC and PEAK values were”, “To determine IC50, the last” for “To determine IC50 the last”, “AUC and peak values in” for “AUC and PEAK values in”, “where IC50 value is the” for “where IC50 is the”

T1 sequence (Q12809 whole entry): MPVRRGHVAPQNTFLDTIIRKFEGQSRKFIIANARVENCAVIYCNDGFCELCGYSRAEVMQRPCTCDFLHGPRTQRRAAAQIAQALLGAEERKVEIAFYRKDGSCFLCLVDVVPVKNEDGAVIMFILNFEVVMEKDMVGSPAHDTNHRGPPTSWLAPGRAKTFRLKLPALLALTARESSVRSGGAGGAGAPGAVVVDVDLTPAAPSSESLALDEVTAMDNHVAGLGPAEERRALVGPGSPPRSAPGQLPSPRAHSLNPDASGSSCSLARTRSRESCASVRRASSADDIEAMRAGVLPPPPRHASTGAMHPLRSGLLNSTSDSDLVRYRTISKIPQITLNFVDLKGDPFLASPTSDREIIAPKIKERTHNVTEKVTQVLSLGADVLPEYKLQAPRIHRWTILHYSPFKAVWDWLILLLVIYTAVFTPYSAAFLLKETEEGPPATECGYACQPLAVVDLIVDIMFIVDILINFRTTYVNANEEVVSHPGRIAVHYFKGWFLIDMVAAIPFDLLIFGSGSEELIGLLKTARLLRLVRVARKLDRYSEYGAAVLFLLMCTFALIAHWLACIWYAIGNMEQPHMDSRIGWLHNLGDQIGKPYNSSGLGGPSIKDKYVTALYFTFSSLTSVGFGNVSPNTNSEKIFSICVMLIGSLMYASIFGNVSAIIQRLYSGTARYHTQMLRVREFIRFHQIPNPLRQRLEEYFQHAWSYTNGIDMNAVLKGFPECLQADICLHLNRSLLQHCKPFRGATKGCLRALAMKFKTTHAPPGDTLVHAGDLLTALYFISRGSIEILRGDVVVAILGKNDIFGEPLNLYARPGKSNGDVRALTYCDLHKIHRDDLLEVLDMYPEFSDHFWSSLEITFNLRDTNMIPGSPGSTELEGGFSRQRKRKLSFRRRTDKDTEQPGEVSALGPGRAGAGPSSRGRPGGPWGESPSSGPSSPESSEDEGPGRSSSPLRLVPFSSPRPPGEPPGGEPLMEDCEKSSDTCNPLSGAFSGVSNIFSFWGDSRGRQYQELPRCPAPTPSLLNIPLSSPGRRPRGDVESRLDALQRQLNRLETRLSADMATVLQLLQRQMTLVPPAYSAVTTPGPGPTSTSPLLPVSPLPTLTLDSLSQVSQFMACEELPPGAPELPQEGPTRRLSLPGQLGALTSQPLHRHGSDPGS

IC50 [2] [µM] | Structure (SMILES) | IC50 [1] [µM]
< 1 | O=C1[C@@H]2C[C@H](O)CN2C(=O)[C@@H]2C[C@H](c3c(O)ccc(Cl)c3Cl)CCN12 (single isomer, unassigned; isomer 4) [Compound 35, 7-(2,3-dichloro-6-hydroxyphenyl)-2-hydroxyhexahydro-1H-pyrido[1,2-a]pyrrolo[1,2-d]pyrazine-5,11(5aH,11aH)-dione isomer 4] | < 30
< 1 | NN1C(=O)[C@@H]2C[C@H](c3c(O)ccc(Cl)c3Cl)CCN2C1=O [Compound 68, (7R,8aS)-2-amino-7-(2,3-dichloro-6-hydroxyphenyl)tetrahydro-imidazo[1,5-a]pyridine-1,3(2H,5H)-dione] | > 30
< 1 | C[C@@H](O)[C@H]1NC(=O)[C@@H]2C[C@H](c3c(O)ccc(Cl)c3Cl)CCN2C1=O [Compound 24, (3R,8R,9aS)-8-(2,3-dichloro-6-hydroxyphenyl)-3-[(1R)-1-hydroxyethyl]-hexahydro-2H-pyrido[1,2-a]pyrazine-1,4-dione] | > 30
< 1 | CN1CC(=O)N2CCC(c3c(O)ccc(Cl)c3Cl)CC2C1=O (stereo not shown) [Compound 36, 8-(2,3-dichloro-6-hydroxyphenyl)-2-methyl-octahydro-1H-pyrido[1,2-a]pyrazine-1,4-dione] | > 30
< 1 | C[C@H]1NC(=O)[C@@H]2C[C@H](c3c(O)ccc(Cl)c3Cl)CCN2C1=O [Compound 58, (3R,8R,9aS)-8-(2,3-dichloro-6-hydroxyphenyl)-3-methyl-hexahydro-2H-pyrido[1,2-a]pyrazine-1,4-dione] | > 30
< 1 | O=C1[C@@H]2C[C@H](c3c(O)ccc(Cl)c3Cl)CCN2C(=O)CN1C1CNC1 [Compound 1, (8R,9aS)-2-(azetidin-3-yl)-8-(2,3-dichloro-6-hydroxyphenyl)-octahydro-1H-pyrido[1,2-a]pyrazine-1,4-dione] | > 30
< 1 | O=C1[C@@H]2C[C@H](c3c(O)ccc(Cl)c3Cl)CCN2C(=O)[C@H]2C[C@H](O)CN12 (single isomer, unassigned; isomer 2) [Compound 65, 7-(2,3-dichloro-6-hydroxyphenyl)-2-hydroxyhexahydro-1H-pyrido[1,2-a]pyrrolo[1,2-d]pyrazine-5,11(5aH,11aH)-dione isomer 2] | < 30
< 1 | Cc1cc(O)c([C@@H]2CCN3C(=O)[C@@H](CO)NC(=O)[C@@H]3C2)c(Cl)c1Cl (relative stereo) [Compound 22, (8R,9aS)-rel-8-(2,3-dichloro-6-hydroxy-4-methylphenyl)-3-((3R)-hydroxymethyl)-hexahydro-2H-pyrido[1,2-a]pyrazine-1,4-dione] | > 30
< 1 | CC(C)[C@H](O)[C@H]1NC(=O)[C@@H]2C[C@H](c3c(O)ccc(Cl)c3Cl)CCN2C1=O [Compound 30, (3R,8R.9aS)-8-(2,3-dichloro-6-hydroxyphenyl)-3-[(1S)-1-hydroxy-2-methylpropyl]-hexahydro-2H-pyrido[1,2-a]pyrazine-1,4-dione] | > 30
< 1 | O=C1[C@@H]2C[C@H](c3c(O)ccc(Cl)c3Cl)CCN2C(=O)CN1C(CO)CO [Compound 32, (8R,9aS)-8-(2,3-dichloro-6-hydroxyphenyl)-2-(1,3-dihydroxypropan-2-yl)hexahydro-4H-pyrido[1,2-a]pyrazine-1,4(6H)-dione] | > 30
< 10 | O=C1[C@H]2C[C@@H](c3cc(Cl)c(Cl)cc3O)CCN2C(=O)CN1C1CNC1 [Compound 10, (8S,9aR)-2-(azetidin-3-yl)-8-(4,5-dichloro-2-hydroxyphenyl)hexahydro-4H-pyrido[1,2-a]pyrazine-1,4(6H)-dione] | –
< 10 | C[C@@H]1NC(=O)C2CC(c3c(O)ccc(Cl)c3Cl)CCN2C1=O (stereo partly drawn) [Compound 4, (3S)-8-(2,3-dichloro-6-hydroxyphenyl)-3-methyl-octahydro-1H-pyrido[1,2-a]pyrazine-1,4-dione] | –
